Laboratory results: patent publication US20220152100A1, “METHODS FOR CONTROLLED ACTIVATION OR ELIMINATION OF THERAPEUTIC CELLS” (Bellicum Pharmaceuticals, Inc., priority 2014, published 2022)

Experiments:
[1] = tested on: differentiated MSCs; assay: CID-induced apoptosis of differentiated MSC progeny (TUNEL, cell density); details: adipocytic differentiated iCasp9-positive cells, 50 nM, 24 hours; from 584
[2] = tested on: MT-2; assay: CID-induced apoptosis (annexin V) in transduced MT-2 cells; format: cell-based, human; details: 8 hours
[3] = tested on: iCasp9-positive MSCs; assay: In vivo killing of iCasp9-transduced MSCs in SCID mice (luminescence, qPCR)
Method: All mouse experiments were performed in accordance with the Baylor College of Medicine animal husbandry guidelines. To assess the persistence of modified MSCs in vivo, a SCID mouse model was used in conjunction with an in vivo imaging system. MSCs were transduced with retroviruses coding for the enhanced green fluorescent protein-firefly luciferase (eGFP-FFLuc) gene alone or together with the iCasp9-ΔCD19 gene. Cells were sorted for eGFP positivity by fluorescence activated cell sorting using a MoFlo flow cytometer (Beckman Coulter, Fullerton, Calif.). Doubly transduced cells were also stained with PE-conjugated anti-CD19 and sorted for PE-positivity. SCID mice (8-10 weeks old) were injected subcutaneously with 5×10^5 MSCs with and without iCasp9-ΔCD19 in opposite flanks. […] For in vivo imaging of MSCs expressing eGFP-FFLuc, mice were injected intraperitoneally with D-luciferin (150 mg/kg) and analyzed using the Xenogen-IVIS Imaging System. Total luminescence (a measurement proportional to the total labeled MSCs deposited) at each time point was calculated by automatically defining regions-of-interest (ROIs) over the MSC implantation sites. These ROIs included all areas with luminescence signals at least 5% above background. Total photon counts were integrated for each ROI and an average value calculated. […]

## CC[C@H](C(=O)N1CCCC[C@H]1C(=O)O[C@H](CCc1ccc(OC)c(OC)c1)c1cccc(OCC(=O)NCC(CNC(=O)COc2cccc([C@@H](CCc3ccc(OC)c(OC)c3)OC(=O)[C@@H]3CCCCN3C(=O)[C@@H](CC)c3cc(OC)c(OC)c(OC)c3)c2)CN(C)C)c1)c1cc(OC)c(OC)c(OC)c1 [AP20187]
[1]
  cell density: < 14 cells/mm2
[2]; iCasp9M-transduced MT-2, 10 nM
  apoptotic cells (annexin-V): 57.9%+/−11.9
[2]; iFas-transduced MT-2, 10 nM
  apoptotic cells (annexin-V): 19.3%+/−8.4
[3]; after one week
  surviving iCasp9-positive cells, of the original population: 0.7%
[3]; two injections of 50 μg 24 hours apart, qPCR
  killing of iCasp9-positive cells: > 99%
